In PubChem BioAssay (NCI) one finds TGI data, which are given here for 13 molecules.

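How tested: cells in 96-well plates exposed to compound for 48 hours at five concentrations. TGI is the concentration that stops growth completely.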

Some test systems named below: T-47D breast; SK-MEL-2 melanoma; ACHN renal; 786-0 renal; PC-3 prostate; CAKI-1 renal; NCI-H460 lung; MDA-MB-435; MDA-N; IGROV1 ovarian; HCT-116 colon.
Assay in all cases: NCI anticancer screen, dose series, 48 h

With `O=C(CCc1cc(O)cc(O)c1)NCCc1ccc(O)c(O)c1`, the TGI with T-47D breast, in the experiment on SK-MEL-2 melanoma, in the experiment on ACHN renal, with 786-0 renal, with PC-3 prostate and with CAKI-1 renal was over 100 µM each time. Also, the TGI with NCI-H460 lung was over 100 µM; with MDA-MB-435 it was 52.8 µM; in the experiment with MDA-N, over 100 µM; with IGROV1 ovarian, over 100 µM; in the experiment on HCT-116 colon it was over 100 µM.
On to `c1ccc([C@H]2CN3CCSC3=N2)cc1`, for which the TGI with T-47D breast, in the experiment with SK-MEL-2 melanoma, in the experiment with ACHN renal, in the experiment on 786-0 renal, with PC-3 prostate and with CAKI-1 renal was over 100 µM throughout. The TGI with NCI-H460 lung, in the experiment on MDA-MB-435, in the experiment with MDA-N, in the experiment with IGROV1 ovarian and in the experiment with HCT-116 colon was over 100 µM in each case.
For the molecule `O=C(NN=C1CCCCC1)Nc1ccccc1Cl`, the TGI with T-47D breast is over 100 µM; in the experiment on SK-MEL-2 melanoma, 91.7 µM; in the experiment on ACHN renal, over 100 µM; with 786-0 renal, over 100 µM; with PC-3 prostate, over 100 µM; with CAKI-1 renal, over 100 µM. Also, the TGI with NCI-H460 lung was over 100 µM; with MDA-MB-435, 47.5 µM; in the experiment on MDA-N, 39 µM; in the experiment on IGROV1 ovarian it was over 100 µM; with HCT-116 colon it was over 100 µM.
For `CC(NC(=O)C(C)C(=O)NCc1ccc(C(F)(F)F)cc1)C(N)=O` (stereo not drawn), the TGI with T-47D breast, in the experiment on SK-MEL-2 melanoma, in the experiment with ACHN renal, with 786-0 renal, in the experiment with PC-3 prostate and with CAKI-1 renal was over 100 µM each time. Also, the TGI with NCI-H460 lung, in the experiment on MDA-MB-435, with MDA-N, in the experiment on IGROV1 ovarian and with HCT-116 colon was over 100 µM each time.
`O=C1C=CC2(O[C@@H](Cc3ccccc3)[C@H](Cc3ccccc3)O2)C(SC(=O)c2ccccc2)C1` (stereo partly drawn): the TGI in the experiment on T-47D breast was found to be 11.3 µM; in the experiment on SK-MEL-2 melanoma, 3.46 µM; in the experiment with ACHN renal, 2.43 µM; in the experiment with 786-0 renal, 0.399 µM; with PC-3 prostate it was 3.69 µM; in the experiment with CAKI-1 renal, 3.71 µM. Also, the TGI is 9.56 µM with NCI-H460 lung; 5.46 µM with MDA-MB-435; 5.22 µM in the experiment with MDA-N; 2.54 µM in the experiment on IGROV1 ovarian; 0.375 µM in the experiment on HCT-116 colon.
Take `COc1ccc(N2CCN(c3ccc4c(c3)NCC(=O)N4)CC2)cc1`: the TGI in the experiment with T-47D breast is 33.4 µM; in the experiment with SK-MEL-2 melanoma, 69.6 µM; with ACHN renal, over 100 µM; with 786-0 renal it was over 100 µM; with PC-3 prostate, over 100 µM; in the experiment on CAKI-1 renal, over 100 µM. Also, the TGI in the experiment on NCI-H460 lung, with MDA-MB-435, in the experiment on MDA-N, in the experiment on IGROV1 ovarian and in the experiment with HCT-116 colon was over 100 µM throughout.
On to `COC(=O)C1(NC(=O)C(N)CC(=O)O)C(C)C1C` (stereo not drawn), for which the TGI in the experiment with T-47D breast, in the experiment with SK-MEL-2 melanoma, with ACHN renal, in the experiment with 786-0 renal, in the experiment with PC-3 prostate and in the experiment on CAKI-1 renal was over 100 µM each time. The TGI in the experiment with NCI-H460 lung, in the experiment on MDA-MB-435, with MDA-N, in the experiment with IGROV1 ovarian and in the experiment with HCT-116 colon was over 100 µM each time.
In the case of `c1ccc(C(CCN2CCCC2)c2ccccn2)cc1` (stereo not drawn), the TGI with T-47D breast, in the experiment with SK-MEL-2 melanoma, in the experiment on ACHN renal, in the experiment with 786-0 renal, in the experiment with PC-3 prostate and with CAKI-1 renal was over 100 µM each time. In addition, the TGI in the experiment on NCI-H460 lung, in the experiment on MDA-MB-435, in the experiment on MDA-N, with IGROV1 ovarian and with HCT-116 colon was over 100 µM throughout.
Regarding `Clc1ccc(OCC2NC3C=CC32)cn1` (stereo not drawn), the TGI in the experiment on T-47D breast, in the experiment with SK-MEL-2 melanoma, in the experiment with ACHN renal, in the experiment on 786-0 renal, in the experiment on PC-3 prostate and in the experiment with CAKI-1 renal was over 100 µM in each case. The TGI in the experiment with NCI-H460 lung, in the experiment with MDA-MB-435, in the experiment on MDA-N, in the experiment on IGROV1 ovarian and with HCT-116 colon was over 100 µM throughout.
Consider `CCCCCCC(CCl)c1sc(-c2csc(CCNC(=O)OC(C)(C)C)n2)nc1C(=O)OC` (stereo not drawn), for which the TGI is 13 µM in the experiment on T-47D breast; 29.6 µM in the experiment with SK-MEL-2 melanoma; 81.6 µM in the experiment on ACHN renal; 75.9 µM with 786-0 renal; 63.8 µM in the experiment with PC-3 prostate; over 100 µM in the experiment on CAKI-1 renal. The TGI in the experiment with NCI-H460 lung is 46.8 µM; in the experiment with MDA-MB-435, 30.4 µM; in the experiment with MDA-N, 87.9 µM; in the experiment on IGROV1 ovarian, over 100 µM; in the experiment with HCT-116 colon it was 31.6 µM.
With `Cc1ccccc1NC(=S)N/N=C(/c1ccccc1)c1ccccn1`, the TGI in the experiment on T-47D breast amounted to 12.4 µM; with SK-MEL-2 melanoma, 6.9 µM; with ACHN renal, 5.4 µM; in the experiment on 786-0 renal, 10.8 µM; in the experiment on PC-3 prostate, 13.6 µM; in the experiment with CAKI-1 renal it was 10.5 µM. The TGI in the experiment on NCI-H460 lung came out at 9.05 µM; in the experiment on MDA-MB-435 it was 14.2 µM; with MDA-N, 14.1 µM; in the experiment on IGROV1 ovarian, 15.3 µM; with HCT-116 colon, 17.2 µM.
In the case of `CCC(=N\NC(N)=S)/C(C)=N/O`, the TGI with T-47D breast, in the experiment with SK-MEL-2 melanoma, in the experiment on ACHN renal, in the experiment with 786-0 renal, with PC-3 prostate and in the experiment on CAKI-1 renal was over 100 µM throughout. The TGI in the experiment on NCI-H460 lung, with MDA-MB-435, in the experiment with MDA-N, with IGROV1 ovarian and in the experiment with HCT-116 colon was over 100 µM each time.
Turning to `O=C1c2ccccc2C(=O)N1C(=S)c1ccccc1`, the TGI in the experiment on T-47D breast, in the experiment on SK-MEL-2 melanoma, with ACHN renal, in the experiment with 786-0 renal, with PC-3 prostate and in the experiment with CAKI-1 renal was over 100 µM each time. The TGI in the experiment on NCI-H460 lung, with MDA-MB-435, in the experiment with MDA-N, in the experiment on IGROV1 ovarian and in the experiment with HCT-116 colon was over 100 µM each time.
